What was measured:
OVCAR-3 xenograft = assay: OVCAR-3 ovarian cancer xenograft; assay type: in vivo
Method: The xenograft model of the OVCAR-3 human ovarian cancer cell line that present functional LHRH receptors was used in this study. OVCAR-3 represents a slow growing xenograft model and secretes the tumor marker (cancer antigen 125, or CA125). It's secretion can be used as treatment response and is a measure of drug activity.
In brief, Nu/Nu female mice, inbred strain, age 5 weeks (Harlan-Sprague Dawley) were injected subcutaneously with a NIH:OVCAR-3 cells/Matrigel suspension (4.6×10^6 cells/mouse). Treatment was started on day 33 after tumor cell injection when the tumors were established and continued on days 41 and 47. The doses for the 3 weekly injections were 0.02, 0.2 and 2 mg/kg body weight, given as a single bolus intravenous injection via lateral tail vein administered once a week for three weeks on days 33, 41 and 47. Necropsies were conducted on day 52. Data are presented as mean SEM. Arrows show dosing.
A group of 9 tumor bearing mice was sacrificed on day 33 and served as baseline group. All mice were necropsied 51-52 days after tumor cell injection. Tumor volumes and bodyweights were recorded twice weekly during the study, as well as overall veterinarian examination of mice was conducted.
Primary tumors, liver, kidney, pancreas, heart, lung, and spleen were collected, fixed in formalin and prepared for histological evaluation. Tumor weights were measured at necropsy, part of the tumors were frozen at −80° C. for LH/CG and LHRH receptor assay determination.
As a biomarker for drug activity, CA125 was determined in serum, collected from each individual mouse at necropsy using a Enzyme Linked Immunoassay for quantitative determination of ovarian cancer antigen CA125 (Assay kit Genway, Biotech, Inc. San Diego, Calif., Catalog #40-052-115009, # BC-1013 according to the manufacturer).
LHRH receptor levels were assessed from formalin fixed tumors. Quantitative immunoperoxidase image analysis was conducted with the Ventana Image Analysis System (VIAS) adjunctive computer assisted image analysis system functionally connected to an interactive microscope (Axio Imager). The quantitative analysis was conducted with the program for quantification of Her2/neu receptor that included morphometric and colorimetric analysis. Receptor status results were reported as percentage of cells showing positive staining of the LHRH receptors under the following criteria: 0 non-immunoreactive, 1+: 1-25% positive, 2+: 26 50% positive, 3+: 51-75% positive cells.

MDA-MB-435S = conditions: cited from earlier work
PC-3 xenograft = assay: PC-3 prostate cancer xenograft, FSH-Phor18 fusion constructs; assay type: in vivo, mice; conditions: compared to vehicle
Method: This example describes in vivo studies in a mouse xenograft model of human prostate cancer (PC-3) with the three types and doses of (3-FSH-Phor18-fusion constructs (hFSH-β-33-53; hFSH-β-81-95 and hFSH-β-90-95).
Male Nu/Nu mice were injected subcutaneously with a PC-3/Matrigel suspension (1×10^6 cells). Mice were allocated into treatment groups of 8 mice per group on day 21 after tumor cell injection. Treatment started on day 1 and continued on day 5, 8, 12, 15 and 19. […] The doses for twice weekly injections were given as a single bolus injection.

Compound: N.N.[Cl][Pt][Cl] [Cisplatinum, reference compound]
- Tumor weights at necropsy (OVCAR-3 xenograft; Phor18-LHRH: 2 and 0.2 mg/kg vs saline and Phor18, p<0.05): not effective
- Tumor volume (OVCAR-3 xenograft; during treatment): no reduction

Compound: COc1cccc2c1C(=O)c1c(O)c3c(c(O)c1C2=O)C[C@@](O)(C(=O)CO)C[C@@H]3O[C@H]1C[C@H](N)[C@H](O)[C@H](C)O1 [doxorubicin]
- time to destroy human breast cancer cells in vitro (MDA-MB-435S): 4 h

Compound: CYTRDLVYKDPARPKIQKTCT [hFSH-β-33-53, unconjugated FSH beta chain fragment]
- Tumor volume at necropsy (PC-3 xenograft): did not affect tumor volumes or tumor weights

Compound: DSTDCT (Follitropin subunit beta; UniProt P01225 108-113, looked up, fragment) [hFSH-β-90-95, unconjugated FSH beta chain fragment]
- Tumor volume at necropsy (PC-3 xenograft): did not affect tumor volumes or tumor weights

Compound: QCHCGKCDSDSTDCT [hFSH-β-81-95, unconjugated FSH beta chain fragment]
- Tumor volume at necropsy (PC-3 xenograft): did not affect tumor volumes or tumor weights

— patent US20140161767A1, “FOLLICLE-STIMULATING HORMONE (FSH)/LYTIC DOMAIN FUSION CONSTRUCTS AND METHODS OF MAKING AND USING SAME” (BOARD OF SUPERVISORS OF LOUISIANA STATE UNIVERSITY AND …, priority 2012, published 2014)
